Results published in patent US9790496B2, “Microrna compounds and methods for modulating MIR-21 activity” (Regulus Therapeutics, Inc., priority 2011, dated 2017).
Several values for one entry are separate records, joined by “and”; a condition that tells them apart may be missing. Identical values can stand only once. Entries after “also recorded” stand apart in the source; their conditions may differ.

Experiments:
[1] = test system: miR-21; assay: miR-21 luciferase sensor assay in Hela cells; assay type: cell-based
[2] = test system: unilateral ureteral obstruction (UUO) model of fibrosis; assay: UUO model: collagen area fraction of kidney tissue (picrosirius red histology); assay type: in vivo, mice; settings: UUO comparison study, 25070 20 mg/kg s.c., irbesartan PO
Method: Control treatment groups included UUO only (sham) and UUO with PBS administered subcutaneously. An additional control group included UUO with Tween-MC/20 carrier perorally. 25070 administered subcutaneously at dose of 20 mg/kg at 5 days prior to, 2 days prior to, and 3 days after, the UUO procedure. Irbesartan was administered perorally on daily on days 0 through 7 following the UUO procedure. Animals were sacrificed on Day 10 following the UUO procedure. Kidney tissue was collected for measurement of collagen 1A1 and collagen 3A1 expression.
The ‘collagen area fraction’ is measured histologically through quantitative image processing of the area of kidney tissue that is stained red by the picrosirius red stain; the percent detected as red is normalized by the area of kidney section.

[3] = test system: ischemia reperfusion injury (IRI) model; assay: Unilateral IRI model: collagen area fraction of kidney tissue; assay type: in vivo, mouse
Method: A model of ischemia reperfusion injury (IRI) is created in the mouse through unilateral or bilateral clamping of kidney arteries, which leads to tubule damage, inflammation, and fibrosis. Kidney dysfunction can occur either early (<5 days) or late (>7 days) in this model, with the early time points useful to test candidate agents for the treatment of acute kidney injury, and the later time points useful to model chronic fibrosis.
Anti-miR-21 compounds were tested in the unilateral IRI model. Unilateral IRI was induced for a period of 30 minutes. Treatment groups were as follows: sham IRI procedure; IRI with PBS administered subcutaneously; IRI with anti-miR-21 compound 25070 administered intraperitoneally at a dose of 20 mg/kg; the 2′-fluoro/2′-MOE modified anti-miR-21 25919 administered intraperitoneally at a dose of 20 mg/kg; and a 2′-fluoro/2′ modified mismatch anti-miR-21 (having three mismatches to the sequence of miR-21) 25319 administered intraperitoneally at a dose of 20 mg/kg. PBS or anti-miR compound was administered on days 5, 6, and 7 following IRI, and animals were sacrificed 14 days after IRI. As anti-miR compound is administered 5 days following the injury to the kidney, or later, when fibrosis has already occurred to some extent, this treatment regimen is considered a therapeutic regimen, rather than a prophylactic regimen.
Kidney tissue was collected for analysis of collagen 1A1 and collagen 3A1 expression (shown in Table O), and collagen area fraction (shown in Table P).
A similar study was performed with the same treatment groups and additional days of treatment. In this study, treatments were administered intraperitoneally at days 5, 6, 7, 14, and 21 following the IRI procedure Animals were sacrificed on Day 27, and kidney tissue was collected for analysis of collagen 1A1 and collagen 3A1 expression, as well as collagen area fraction.

[4] = test system: ischemia reperfusion injury/nephrectomy (IR/Nx) model; assay: Survival rate of IR/Nx model mice two days after nephrectomy; assay type: in vivo
Method: The survival rate of IR/Nx model mice two days after nephrectomy was determined across six different experiments to determine if administration of anti-miR-21 compounds increases survival. In the first three experiments, anti-miR-21 compound was administered on days 5, 6, and 7 after ischemia reperfusion injury, and nephrectomy occurred on day 10 or day 11. In the second three experiments, anti-miR-21 compound was administered on days 2, 3, and 4, and nephrectomy occurred on day 7.

[5] = Ex vivo liver homogenate stability assay (HPLC-TOF MS); settings: 5 μM in liver homogenate (50 mg tissue per ml), 24 hours at 37° C.
[6] = In vivo stability: compound in kidney tissue after administration to mice; settings: mice; by 7 days post-injection

AECSATCSAGTCSTGAUSAAGCSTAE (ACATCAGTCTGATAAGCTA; modified nucleosides coded in name, code key not given here) [Compound 25070]
luciferase value normalized to beta-galactosidase activity ([1]; 4 nM oligonucleotide, Hela cells, mock transfection 50): 99
luciferase value normalized to beta-galactosidase activity ([1]; .16 nM oligonucleotide, Hela cells, mock transfection 45): 65
luciferase value normalized to beta-galactosidase activity ([1]; .8 nM oligonucleotide, Hela cells, mock transfection 33): 87
inhibition of miR-21 in the luciferase assay (in words) ([1]; Hela cells): demonstrated inhibition of miR-21 in a dose-dependent manner; also recorded: potent inhibitor of miR-21 activity
fold change in luciferase value relative to the mock treatment ([1]; concentration of anti-miR compound 0.2 (unit not given)): 1.04
fold change in luciferase value relative to the mock treatment ([1]; concentration of anti-miR compound 0.6 (unit not given)): 1.01
fold change in luciferase value relative to the mock treatment ([1]; concentration of anti-miR compound 1.9 (unit not given)): 1.14
fold change in luciferase value relative to the mock treatment ([1]; concentration of anti-miR compound 5.6 (unit not given)): 6.22
fold change in luciferase value relative to the mock treatment ([1]; concentration of anti-miR compound 16.7 (unit not given)): 11.28
fold change in luciferase value relative to the mock treatment ([1]; concentration of anti-miR compound 50.0 (unit not given)): 11.00
Collagen Area Fraction (%), Mean ([2]; group mean): 8.0%
Collagen Area Fraction (%), individual animal ([2]; sacrifice Day 10, 20 mg/kg): 7.632% and 9.937% and 8.015% and 6.611% and 6.319% and 11.272% and 6.803% and 7.405%
Collagen Area Fraction (#), individual animal ([3]; 20 mg/kg intraperitoneally on days 5, 6, 7, sacrifice 14 days after IRI, 20 mg/kg): 10.266 and 11.772 and 10.267 and 8.404 and 7.862 and 6.975 and 8.381 and 13.773
Collagen Area Fraction (#), Mean ([3]; 20 mg/kg intraperitoneally on days 5, 6, 7, sacrifice 14 days after IRI, group mean): 9.7
reduction in collagen area fraction (in words) ([3]; i.p. 20 mg/kg on days 5, 6, 7, sacrificed 14 days after IRI): statistically significant reduction
reduction in collagen area fraction (in words) ([3]; i.p. on days 5, 6, 7, 14, 21, sacrificed Day 27): statistically significant reduction
Collagen Area Fraction (#), individual animal ([3]; intraperitoneally on days 5, 6, 7, 14, 21, sacrifice Day 27): 7.354 and 9.241 and 9.589 and 11.573 and 8.182 and 10.695 and 13.978 and 10.12
Survival rate 2 days after Nx ([4]; Study 4, Nx Day 7, 20 mg/kg on days 2, 3, 4 after IR): 75%
survival rate 2 days after nephrectomy ([4]; first three experiments: dosing days 5, 6, 7, nephrectomy day 10 or 11, PBS 55%, P=0.02): 80%
survival rate 2 days after nephrectomy ([4]; second three experiments: dosing days 2, 3, 4, nephrectomy day 7, PBS 52%, P=0.11): 69%
compound lacking the 3'-terminal nucleoside [5]: about 27%
compound present as the full-length compound [5]: about 58%
compound present in kidney tissue lacking the 3'-terminal nucleoside [6]: about 50%
